# Data reported in patent publication US9302999B2, “Substituted triazoles as herbicides” (E. I. DU PONT DE NEMOURS AND COMPANY, priority 2012, dated 2016).
# What was measured:
# Type in all cases: in vivo
# [1] = test system: wheat (Triticum aestivum); test: Test A pre-/postemergence: wheat; details: for Wheat plant response rating: Postemergence; for Plant response rating, Wheat: Preemergence
# Summary of the method: (§1)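 Compounds, formulated with surfactant in non-phytotoxic solvent, were applied as a directed soil spray preemergence and as postemergence sprays to 2–10 cm, one- to two-leaf seedlings grown in loam soil blended with sand; visual injury, 0–100, assessed ~10 days post-treatment against untreated controls.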
# [2] = test system: pigweed (Amaranthus retroflexus); test: Test A pre-/postemergence: pigweed; details: for Pigweed plant response rating: Postemergence; for Plant response rating, Pigweed: Preemergence
# Summary of the method: as §1
# [3] = test system: barnyardgrass (Echinochloa crus-galli); test: Test C flooded paddy test: barnyardgrass; details: Flood (flooded paddy test), visual rating after 13 to 15 days, scale 0 to 100 (0 no effect, 100 complete control)
# Summary of the method: (§2)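 2-leaf stage plants; pots flooded 3 cm above soil; compound applied into paddy water, depth maintained. Greenhouse 13–15 d. Visual rating vs controls, 0–100 (0 = no effect, 100 = complete control); dash = no result.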
# [4] = test system: crabgrass, large (large crabgrass, Digitaria sanguinalis); test: Test A pre-/postemergence: crabgrass, large; details: for Crabgrass, Large plant response rating: Postemergence; for Plant response rating, Crabgrass, Large: Preemergence
# Summary of the method: as §1
# [5] = test system: barnyardgrass (Echinochloa crus-galli); test: Test A pre-/postemergence: barnyardgrass; details: for Barnyardgrass plant response rating: Postemergence; for Plant response rating, Barnyardgrass: Preemergence
# Summary of the method: as §1
# [6] = test system: corn (Zea mays); test: Test A pre-/postemergence: corn; details: for Corn plant response rating: Postemergence; for Plant response rating, Corn: Preemergence
# Summary of the method: as §1
# [7] = test system: rice (Oryza sativa); test: Test C flooded paddy test: rice; details: Flood (flooded paddy test), visual rating after 13 to 15 days, scale 0 to 100 (0 no effect, 100 complete control)
# Summary of the method: as §2
# [8] = test system: foxtail, giant (giant foxtail, Setaria faberii); test: Test A pre-/postemergence: foxtail, giant; details: for Foxtail, Giant plant response rating: Postemergence; for Plant response rating, Foxtail, Giant: Preemergence
# Summary of the method: as §1
# [9] = test system: velvetleaf (Abutilon theophrasti); test: Test A pre-/postemergence: velvetleaf; details: for Velvetleaf plant response rating: Postemergence; for Plant response rating, Velvetleaf: Preemergence
# Summary of the method: as §1
# [10] = test system: sedge, umbrella (small-flower umbrella sedge, Cyperus difformis); test: Test C flooded paddy test: sedge, umbrella; details: Flood (flooded paddy test), visual rating after 13 to 15 days, scale 0 to 100 (0 no effect, 100 complete control)
# Summary of the method: as §2
# [11] = test system: ducksalad (Heteranthera limosa); test: Test C flooded paddy test: ducksalad; details: Flood (flooded paddy test), visual rating after 13 to 15 days, scale 0 to 100 (0 no effect, 100 complete control)
# Summary of the method: as §2
# [12] = test system: morningglory (Ipomoea spp.); test: Test A pre-/postemergence: morningglory; details: for Morningglory plant response rating: Postemergence; for Plant response rating, Morningglory: Preemergence
# Summary of the method: as §1
# [13] = 125 g ai/ha, 0 to 100 scale, 0 is no effect, 100 is complete control
# [14] = 500 g ai/ha, visual rating on 0 to 100 scale (0 no effect, 100 complete control), approximately ten days
# [15] = 125 g ai/ha, 0 to 100 scale (0 no effect, 100 complete control)
# [16] = 500 g ai/ha, 0 to 100 scale, 0 is no effect, 100 is complete control
Structure (SMILES),"Wheat plant response rating [1, 13]","Wheat plant response rating [1, 14]","Plant response rating, Wheat [1, 15]","Plant response rating, Wheat [1, 16]","Pigweed plant response rating [2, 13]","Pigweed plant response rating [2, 14]","Plant response rating, Pigweed [2, 15]","Plant response rating, Pigweed [2, 16]","Plant response rating, Barnyardgrass ([3]; 62 g ai/ha)","Plant response rating, Barnyardgrass ([3]; 250 g ai/ha)","Crabgrass, Large plant response rating [4, 13]","Crabgrass, Large plant response rating [4, 14]","Plant response rating, Crabgrass, Large [4, 15]","Plant response rating, Crabgrass, Large [4, 16]","Barnyardgrass plant response rating [5, 13]","Barnyardgrass plant response rating [5, 14]","Plant response rating, Barnyardgrass [5, 15]","Plant response rating, Barnyardgrass [5, 16]","Corn plant response rating [6, 13]","Corn plant response rating [6, 14]",other results
Cc1nn(-c2ccc(C(F)(F)F)cc2)nc1Oc1cncc(C(F)(F)F)c1 [Compound 37],0,10,0,0,80,100,70,100,10,35,20,70,90,100,10,20,30,90,10,20,"Plant response rating, Corn [6, 15]: 0; Plant response rating, Rice ([7]; 62 g ai/ha): 10; Plant response rating, Rice ([7]; 250 g ai/ha): 20; Foxtail, Giant plant response rating [8, 13]: 30; Foxtail, Giant plant response rating [8, 14]: 80; Plant response rating, Foxtail, Giant [8, 15]: 90; Plant response rating, Foxtail, Giant [8, 16]: 100; Velvetleaf plant response rating [9, 13]: 20; Velvetleaf plant response rating [9, 14]: 50; Plant response rating, Velvetleaf [9, 15]: 0; Plant response rating, Velvetleaf [9, 16]: 10; Plant response rating, Sedge, Umbrella ([10]; 62 g ai/ha): 0; Plant response rating, Sedge, Umbrella ([10]; 250 g ai/ha): 0; Plant response rating, Ducksalad ([11]; 62 g ai/ha): 0; Plant response rating, Ducksalad ([11]; 250 g ai/ha): 70; Morningglory plant response rating [12, 13]: 20; Morningglory plant response rating [12, 14]: 90; Plant response rating, Morningglory [12, 15]: 0; Plant response rating, Morningglory [12, 16]: 20"
Cc1nn(-c2ccc(C(F)(F)F)cc2)nc1Oc1ccnc(OC(F)F)c1 [Compound 48],10,20,0,0,100,100,40,90,10,30,50,90,30,100,10,30,0,30,10,30,"Plant response rating, Corn [6, 15]: 0; Plant response rating, Corn [6, 16]: 0; Plant response rating, Rice ([7]; 62 g ai/ha): 10; Plant response rating, Rice ([7]; 250 g ai/ha): 20; Foxtail, Giant plant response rating [8, 13]: 30; Foxtail, Giant plant response rating [8, 14]: 70; Plant response rating, Foxtail, Giant [8, 15]: 40; Plant response rating, Foxtail, Giant [8, 16]: 100; Velvetleaf plant response rating [9, 13]: 30; Velvetleaf plant response rating [9, 14]: 50; Plant response rating, Velvetleaf [9, 15]: 0; Plant response rating, Velvetleaf [9, 16]: 0; Plant response rating, Sedge, Umbrella ([10]; 62 g ai/ha): 0; Plant response rating, Sedge, Umbrella ([10]; 250 g ai/ha): 45; Plant response rating, Ducksalad ([11]; 62 g ai/ha): 20; Plant response rating, Ducksalad ([11]; 250 g ai/ha): 65; Morningglory plant response rating [12, 13]: 10; Morningglory plant response rating [12, 14]: 90; Plant response rating, Morningglory [12, 15]: 0; Plant response rating, Morningglory [12, 16]: 20"
